Measurements reported in publication PMC8580996, “2-Oxoglutarate derivatives can selectively enhance or inhibit the activity of human oxygenases” (Nature Communications, 2021).

Biological target: FIH (Homo sapiens, UniProt Q9NWT6)
Experiment: 1H NMR assay of FIH-catalyzed oxidative decarboxylation of cosubstrate, with SPE-MS of final mixture
Assay type: biochemical
Conditions: 5 μM FIH, 150 μM CA1-20, 150 μM cosubstrate
Protocol: Supplementary Figure 2. […] FIH- […]
catalyzed oxidative decarboxylation of 2OG was monitored using a Bruker AVIII 700 NMR machine equipped with a 5 mm 1H(13C/15N) inverse cryoprobe; spectra were analyzed using the Bruker TopSpin 3.6.1 software.
50 μM ammonium iron(II) sulfate hexahydrate (FAS, (NH4)2Fe(SO4)2·6H2O) in 50 mM aqueous Tris-d11 containing 10% v/v D2O (pH 7.5, 25° C). The ratio of the CA 1-20 peptide and the hydroxylated CA 1-20(Ox) peptide, which is the product of the F IH-catalyzed hydroxylation reaction, was determined using SPE-MS after NMR […]
(a) Close-up (3.0-2.2 ppm) of the 1H NMR spectrum of commercial 2OG in 50 mM aqueous Tris-d11 containing 10%v/v D2O (pH 7.5, 25° C); (b) Close-up (3.0-2.2 ppm) of the 1H NMR spectrum of commercial succinate in 50 […]
FIH-catalyzed oxidative decarboxylation of 3-methyl-2OG (1) was monitored using a Bruker AVIII 700 NMR machine equipped with a 5 mm 1H(13C/15N) inverse cryoprobe; spectra were analyzed using the […]
Bruker TopSpin 3.6.1 software. […]
in 50 mM aqueous Tris -d11 containing 10% v/v D2O (pH 7.5, 25° C). The ratio of the CA 1-20 peptide and the hydroxylated CA 1-20(Ox) peptide, which is the product of the FIH -catalyzed hydroxylation reaction, was […]
(a) Close -up (3.4 -0.9 ppm) of the 1H NMR spectrum of synthetic 1 in 50 mM aqueous Tris-d11 containing 10% v/v D2O (pH 7.5, 2 5° C); ( b) Close -up (3.4 -0.9 ppm) of the 1H NMR spectrum of commercial 2 -methylsuccinate ( 36) […]
FIH-catalyzed oxidative decarboxylation of 4-methyl-2OG (12) was monitored using a Bruker AVIII 700 NMR machine equipped with a 5 mm 1H(13C/15N) inverse cryoprobe; spectra were analyzed using the Bruker TopSpin 3.6.1 software.
(NH4)2Fe(SO4)2·6H2O) in 50 mM aqueous Tris-d11 containing 10% v/v D2O (pH 7.5, 25° C). The ratio of the CA 1-20 peptide and the hydroxylated CA 1-20(Ox) peptide, which is the product of the FI H-catalyzed hydroxylation […]
(a) Close -up (3.3 -0.9 ppm) of the 1H NMR spectrum of synthetic 12 in 50 mM aqueous Tris-d11 containing 10% v/v D2O (pH 7.5, 25° C); ( b) Close -up (3.4 -0.9 ppm) of the 1H NMR spectrum of commercial 2 -methylsuccinate ( 36)

Sequence of FIH (Q9NWT6 whole entry): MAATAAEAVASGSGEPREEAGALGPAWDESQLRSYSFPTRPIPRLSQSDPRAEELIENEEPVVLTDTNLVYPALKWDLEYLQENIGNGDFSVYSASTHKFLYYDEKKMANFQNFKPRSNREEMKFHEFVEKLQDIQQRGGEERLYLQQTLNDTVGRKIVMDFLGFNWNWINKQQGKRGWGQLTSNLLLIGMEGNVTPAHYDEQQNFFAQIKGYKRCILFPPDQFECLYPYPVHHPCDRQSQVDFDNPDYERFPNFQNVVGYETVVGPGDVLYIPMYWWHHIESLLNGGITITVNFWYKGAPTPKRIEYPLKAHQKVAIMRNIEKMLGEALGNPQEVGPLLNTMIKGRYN

SMILES: CC(CC(=O)C(=O)O)C(=O)O (centres unmarked) [compound 12, 4-methyl-2OG]
- hydroxylation of CA1-20 peptide in final reaction mixture (SPE-MS) (t = 10 min): > 95%
- FIH-catalyzed conversion of cosubstrate to succinate / 2-methylsuccinate (1H NMR) (within 5 min): ~ 65%
